Measurements: patent publication US20130178466A1, “Treatment of Microbial Infections” (BIOCOPEA LIMITED, priority 2009, published 2013)
Read-outs that look alike come from different tables or passages of the source.

Columns and labels:
IFN-γ [1] = test: IFN-γ levels in PBMC under LPS stimulation (ELISA); assay type: cell-based, human; design: production of IFN after LPS stimulation (in words): dose or concentration left out as unconfirmed
Description: (§1) The two mitogens that the inventors used to stimulate lymphocytes, and therefore assess immune function, were lipopolysaccharide (LPS) and Concanavalin A (Con A). LPS acts on B cells but not T cells, whereas Con A acts on T cells but not B cells. […] Peripheral Blood Mononuclear Cells (PMBC) were independently administered with each mitogen, LPS or Con A, and then treated with ibuproxam, benoxaprofen hydroxamate or pentoxifylline. […] Blood was collected in 6 ml vacutainers (green cap). Blood was processed within 2 h of collection. Materials used: Non-coagulated blood; FCS; RPMI-1640 media supplemented with L-Gln and P/S; PBS; sterile tips and pipettes; Sterile 15 ml Falcon; Sterile V-bottom 96-well plates with lids; Neubauer chamber; Trypan Blue solution; 70% IPA solution; Accuspin-Histopaque tubes (Sigma, A7054) Procedure: • 1. Dilute samples 1:1 in sterile PBS; • 2. Add 30 ml of diluted blood into an Accuspin-Histopaque tube (Sigma, A7054); • 3. Centrifuge at 800 rcf 15 min at room temperature (RT); • 4. After centrifugation, the red blood cells will remain at the bottom below the frit. The monocytes (PBMC) will be present on a layer above the frit, with the plasma on top; • 5. Collect the PBMC layer with a pipette into a fresh 15 ml Falcon tube and top up to 15 ml of PBS; • 6. Centrifuge at 250 rcf 10 min at RT; • 7. Discard the supernatant, flick the pellet and add another 10 ml of PBS; • 8. Centrifuge at 250 rcf 10 min at RT; • 9. Repeat steps 7 and 8; • 10. […] Count cells and make a 4×10^6 cell/ml suspension in complete medium. Add 100 μl of cell suspension per well in a V-bottom 96-well plate. Then add 50 μl of stimulant or vehicle in complete media, and 50 μl of drug or vehicle in complete media. Incubate the cells for 24 h at 37° C. 5% CO2; • 12. […] The values in the Table are expressed as the percentage value of the LPS only control. […] Standard deviation values (st error) are given underneath each value of expressed IFN-γ or TNF-α levels.

TNF-α [2] = test: TNF-α levels in PBMC under LPS stimulation (ELISA); assay type: cell-based, human; conditions: for effect on TNF under LPS stimulation (in words): LPS stimulated cells
Description: as §1

IFN-γ [3] = test: IFN-γ levels in PBMC under Con A stimulation (ELISA); assay type: cell-based, human; conditions: for effect against ConA-stimulated IFN production (in words): Con A stimulated cells
Description: (§2) The two mitogens that the inventors used to stimulate lymphocytes, and therefore assess immune function, were lipopolysaccharide (LPS) and Concanavalin A (Con A). LPS acts on B cells but not T cells, whereas Con A acts on T cells but not B cells.
(§3) Blood was collected in 6 ml vacutainers (green cap). Blood was processed within 2 h of collection.
(§4) Materials used: Non-coagulated blood; FCS; RPMI-1640 media supplemented with L-Gln and P/S; PBS; sterile tips and pipettes; Sterile 15 ml Falcon; Sterile V-bottom 96-well plates with lids; Neubauer chamber; Trypan Blue solution; 70% IPA solution; Accuspin-Histopaque tubes (Sigma, A7054)
(§5) Procedure: • 1. Dilute samples 1:1 in sterile PBS; • 2. Add 30 ml of diluted blood into an Accuspin-Histopaque tube (Sigma, A7054); • 3. Centrifuge at 800 rcf 15 min at room temperature (RT); • 4. After centrifugation, the red blood cells will remain at the bottom below the frit. The monocytes (PBMC) will be present on a layer above the frit, with the plasma on top; • 5. Collect the PBMC layer with a pipette into a fresh 15 ml Falcon tube and top up to 15 ml of PBS; • 6. Centrifuge at 250 rcf 10 min at RT; • 7. Discard the supernatant, flick the pellet and add another 10 ml of PBS; • 8. Centrifuge at 250 rcf 10 min at RT; • 9. Repeat steps 7 and 8; • 10. Discard the supernatant and resuspend the pellet in 1 ml of complete medium (RPMI-1640 10% FCS); • 11. Count cells and make a 4×10^6 cell/ml suspension in complete medium. Add 100 μl of cell suspension per well in a V-bottom 96-well plate. Then add 50 μl of stimulant or vehicle in complete media, and 50 μl of drug or vehicle in complete media. Incubate the cells for 24 h at 37° C. 5% CO2; • 12. After incubation, take 60 μl of cell supernatant to measure IFNγ and TNFα by ELISA (OptEIA human IFNγ, cat No. 555142 and human TNF, Cat No. 555212) following manufacturer's instructions (BD Biosciences).

TNF-α [4] = test: TNF-α levels in PBMC under Con A stimulation (ELISA); assay type: cell-based, human; conditions: for effect against ConA-stimulated TNF production (in words): Con A stimulated cells
Description: as §2, §3, §4, §5

Influenza A/PR/8/34 = test: In vivo mouse challenge with lethal influenza (H1N1); design: species or system C57BL/6 female mice; conditions: H1N1-infected mice, single intra-peritoneal dose on day 3
Description: Protocol: Fifty (50) C57BL/6 female mice (6-7 weeks old), were divided into five (5) experimental groups containing ten (10) animals each. On day 1, animals received an intranasal lethal dose (50 μl total, 25 μl nostril) of Influenza A/PR/8/34 under halothane induced anaesthesia. On Day 3, animals received one intra-peritoneal injection (100-150 μl) of the test compound (360 μg ibuproxam (BC1048), 54 μg oxametacin (BC1002), 180 μg benoxaprofen (BC 1005), 189 μg benoxaprofen hydroxamate (BC1006)).
All animals were assessed daily for morbidity, weight loss and survival from Day 1 until at least Day 6. Morbidity variables (i.e. Body Condition, Posture, Activity, Piloerection, Respiration, Vocalisation, Ataxia and Oculo/Nasal Discharges) were recorded according to the following scale of severity: Normal (0), Mild (1), Laboured (2) and Severe/Cull-point (3).
Using standard techniques as described above, mice were infected with a H1N1 virus which was allowed to become established in each of the subjects. […] The weight loss of both treated and untreated mice was then determined.

[5] = LPS, 1 μM, percentage of LPS only control (100%)
[6] = LPS, 10 μM, percentage of LPS only control (100%)
[7] = LPS, 100 μM, percentage of LPS only control (100%)
[8] = no LPS, 1 μM, percentage of LPS only control
[9] = no LPS, 10 μM, percentage of LPS only control
[10] = no LPS, 100 μM, percentage of LPS only control
[11] = ConA, 1 μM, compared to 100% untreated cells under Con A stimulation
[12] = ConA, 10 μM, compared to 100% untreated cells under Con A stimulation
[13] = ConA, 100 μM, compared to 100% untreated cells under Con A stimulation

Compound | IFN-γ % signal (IFN-γ [1]; [5]) | IFN-γ % signal (IFN-γ [1]; [6]) | IFN-γ % signal (IFN-γ [1]; [7]) | IFN-γ % signal (IFN-γ [1]; [8]) | IFN-γ % signal (IFN-γ [1]; [9]) | IFN-γ % signal (IFN-γ [1]; [10]) | TNF-α % signal (TNF-α [2]; [5]) | TNF-α % signal (TNF-α [2]; [6]) | TNF-α % signal (TNF-α [2]; [7]) | TNF-α % signal (TNF-α [2]; [8]) | TNF-α % signal (TNF-α [2]; [9]) | TNF-α % signal (TNF-α [2]; [10]) | effect against ConA-stimulated IFN production (in words) (IFN-γ [3]) | IFN-γ % signal (IFN-γ [3]; [11]) | IFN-γ % signal (IFN-γ [3]; [12]) | IFN-γ % signal (IFN-γ [3]; [13]) | IFN-γ % signal (IFN-γ [3]; no ConA, 1 μM) | IFN-γ % signal (IFN-γ [3]; no ConA, 10 μM) | IFN-γ % signal (IFN-γ [3]; no ConA, 100 μM) | survival rate versus control, untreated mice (Influenza A/PR/8/34) | further results
CC(C)Cc1ccc(C(C)C(=O)NO)cc1 (stereo not shown) [BC1048, ibuproxam] | 89.21% | 96.62% | −1.28% | −4.14% | −3.67% | −6.29% | 105.78% | 105.67% | 109.93% | 3.14% | 0.48% | −1.28% | modest effect | 94.90% | 97.25% | 78.18% | −0.68% | −0.61% | −1.04% | higher survival rate than the control | production of IFN after LPS stimulation (in words) (IFN-γ [1]; highest concentration): completely blocks; effect on TNF under LPS stimulation (in words) (TNF-α [2]): less of an effect; effect against ConA-stimulated TNF production (in words) (TNF-α [4]): modest effect; TNF-α % signal (TNF-α [4]; [11]): 109.64%; TNF-α % signal (TNF-α [4]; [12]): 106.74%; TNF-α % signal (TNF-α [4]; [13]): 79.25%; TNF-α % signal (TNF-α [4]; no ConA, 1 μM): 3.08%; TNF-α % signal (TNF-α [4]; no ConA, 10 μM): 0.48%; TNF-α % signal (TNF-α [4]; no ConA, 100 μM): −1.25%
CC(C(=O)O)c1ccc2oc(-c3ccc(Cl)cc3)nc2c1 (stereo not shown) [BC1005, benoxaprofen] | – | – | – | – | – | – | – | – | – | – | – | – | – | – | – | – | – | – | – | higher survival rate than the control | –
CC(=O)CCCCn1c(=O)c2c(ncn2C)n(C)c1=O [BC1042, pentoxifylline] | 102.11% | 98.28% | 40.73% | 3.98% | 1.48% | 2.03% | 113.04% | 107.28% | 114.60% | 1.15% | −2.45% | −0.80% | little effect | 108.10% | 97.98% | 92.61% | 1.13% | 0.42% | 0.58% | higher survival rate than the control | production of IFN after LPS stimulation (in words) (IFN-γ [1]): less pronounced than ibuproxam; effect on TNF under LPS stimulation (in words) (TNF-α [2]): less of an effect; effect against ConA-stimulated TNF production (in words) (TNF-α [4]): little effect; TNF-α % signal (TNF-α [4]; [11]): 101.46%; TNF-α % signal (TNF-α [4]; [12]): 102.31%; TNF-α % signal (TNF-α [4]; [13]): 103.71%; TNF-α % signal (TNF-α [4]; no ConA, 1 μM): 1.11%; TNF-α % signal (TNF-α [4]; no ConA, 10 μM): −2.37%; TNF-α % signal (TNF-α [4]; no ConA, 100 μM): −0.77%
CC(C(=O)NO)c1ccc2oc(-c3ccc(Cl)cc3)nc2c1 (stereo not shown) [BC1006, benoxaprofen hydroxamate] | 35.29% | 16.67% | 21.21% | 16.74% | 13.46% | 12.38% | 106.25% | 101.47% | 57.77% | −2.29% | −2.27% | 11.97% | clear effects | 98.35% | 33.81% | 3.78% | 3.76% | 2.80% | 1.82% | higher survival rate than the control | maximal effect against TNF under LPS stimulation (TNF-α [2]; at the higher concentration): 41%; effect against ConA-stimulated TNF production (in words) (TNF-α [4]): clear effects; TNF-α % signal (TNF-α [4]; [11]): 83.37%; TNF-α % signal (TNF-α [4]; [12]): 38.65%; TNF-α % signal (TNF-α [4]; [13]): 51.50%; TNF-α % signal (TNF-α [4]; no ConA, 1 μM): 2.84%; TNF-α % signal (TNF-α [4]; no ConA, 10 μM): 1.62%; TNF-α % signal (TNF-α [4]; no ConA, 100 μM): 19.51%
COc1ccc2c(c1)c(CC(=O)NO)c(C)n2C(=O)c1ccc(Cl)cc1 [BC1002, oxametacin] | – | – | – | – | – | – | – | – | – | – | – | – | – | – | – | – | – | – | – | higher survival rate than the control | –
